Legend:
kale 'Red Russian' [1] = experiment: Visual injury of kale after insecticide, fungicide, PGRs, safeners (Example 4)
Description: (§1) Greenhouse and laboratory studies were conducted to ascertain the tolerance and nutritional quality differences following postemergence applications of the insecticide chlorpyrifos, the fungicide chlorothalonil, the PGRs mepiquat-chloride and paclobutrazol, and the safeners napthalic anhydride and isoxadifen-ethyl on kale ‘Red Russian’ and basil ‘Genovese’. Visual injury was rated based on general phytotoxicity, chlorosis, and visual stunting and each measurement was based on a percent scale from 0 to 100 where 0 equals no visual response and 100 equals complete plant death. Kale and basil were both harvested approximately 4 weeks after treatments and plants were pooled over replicates for content analysis of crude protein, crude amino acid content, acid detergent fiber, neutral detergent fiber, total fatty acids, and/or key mineral content (including Na, Ca, P, Mg, K, Fe, Mn, Zn, and Cu). In addition, the amounts of key individual amino acids (aspartic acid, threonine, glutamic acid, proline, glycine, cysteine, valine, leucine, isoleucine, methionine, and lysine) and composite classifications of fatty acid (saturated fatty acids, monounsaturated fatty acids, polyunsaturated fatty acids) were also analyzed from these sub-samples for kale (Tables 10-14).

basil 'Genovese' = experiment: Visual injury of basil after insecticide, fungicide, PGRs, safeners (Example 4)
Description: as §1

kale 'Red Russian' [2] = experiment: Content analysis of kale: protein, amino acids, fiber, fatty acids, minerals (Example 4, Tables 12-14); format: in vivo; details: 28 DA-A
Description: as §1

[3] = 7 DA-A, rates g ai/ha: chlropyrifos 1120, chlorothalonil 2630, paclobutrazol 3.23, mepiquat-chloride 12.3, + NIS 0.25 % v/v
[4] = 7 DA-A, rates g ai/ha: chlropyrifos 3370, chlorothalonil 7900, paclobutrazol 9.7, mepiquat-chloride 37, + NIS 0.25 % v/v
[5] = 14 DA-A, rates g ai/ha: chlropyrifos 1120, chlorothalonil 2630, paclobutrazol 3.23, mepiquat-chloride 12.3, + NIS 0.25 % v/v
[6] = 14 DA-A, rates g ai/ha: chlropyrifos 3370, chlorothalonil 7900, paclobutrazol 9.7, mepiquat-chloride 37, + NIS 0.25 % v/v
[7] = 28 DA-A, rates g ai/ha: chlropyrifos 1120, chlorothalonil 2630, paclobutrazol 3.23, mepiquat-chloride 12.3, + NIS 0.25 % v/v
[8] = 28 DA-A, rates g ai/ha: chlropyrifos 3370, chlorothalonil 7900, paclobutrazol 9.7, mepiquat-chloride 37, + NIS 0.25 % v/v
[9] = 7 DA-A, rates g ai/ha: chlropyrifos 1120, chlorothalonil 2630, paclobutrazol 3.23, mepiquat-chloride 12.3, Isoxadifen 8, Napthalic anhydride 264, + NIS 0.25 % v/v
[10] = 7 DA-A, rates g ai/ha: chlropyrifos 3370, chlorothalonil 7900, paclobutrazol 9.7, mepiquat-chloride 37, Isoxadifen 16, Napthalic anhydride 527, + NIS 0.25 % v/v
[11] = 14 DA-A, rates g ai/ha: chlropyrifos 1120, chlorothalonil 2630, paclobutrazol 3.23, mepiquat-chloride 12.3, Isoxadifen 8, Napthalic anhydride 264, + NIS 0.25 % v/v
[12] = 14 DA-A, rates g ai/ha: chlropyrifos 3370, chlorothalonil 7900, paclobutrazol 9.7, mepiquat-chloride 37, Isoxadifen 16, Napthalic anhydride 527, + NIS 0.25 % v/v
[13] = 28 DA-A, rates g ai/ha: chlropyrifos 1120, chlorothalonil 2630, paclobutrazol 3.23, mepiquat-chloride 12.3, Isoxadifen 8, Napthalic anhydride 264, + NIS 0.25 % v/v
[14] = 28 DA-A, rates g ai/ha: chlropyrifos 3370, chlorothalonil 7900, paclobutrazol 9.7, mepiquat-chloride 37, Isoxadifen 16, Napthalic anhydride 527, + NIS 0.25 % v/v
[15] = first-listed rate g ai/ha: chlropyrifos ###, chlorothalonil ###, paclobutrazol 3.2, mepiquat-chloride 12, + NIS 0.3 % v/v
[16] = rates g ai/ha: chlropyrifos 1120, chlorothalonil 2630, paclobutrazol 3.23, mepiquat-chloride 12.3, + NIS 0.25 % v/v

C[N+]1(C)CCCCC1 [mepiquat-chloride]
Phytotoxicity Chlorosis (kale 'Red Russian' [1]; [3]): 0%
Phytotoxicity General (kale 'Red Russian' [1]; [3]): 9%
Phytotoxicity Stunting (kale 'Red Russian' [1]; [3]): 4%
Phytotoxicity Chlorosis (kale 'Red Russian' [1]; [4]): 0%
Phytotoxicity General (kale 'Red Russian' [1]; [4]): 10%
Phytotoxicity Stunting (kale 'Red Russian' [1]; [4]): 1%
Phytotoxicity Chlorosis (kale 'Red Russian' [1]; [5]): 15%
Phytotoxicity General (kale 'Red Russian' [1]; [5]): 1%
Phytotoxicity Stunting (kale 'Red Russian' [1]; [5]): 16%
Phytotoxicity Chlorosis (kale 'Red Russian' [1]; [6]): 4%
Phytotoxicity General (kale 'Red Russian' [1]; [6]): 0%
Phytotoxicity Stunting (kale 'Red Russian' [1]; [6]): 3%
Phytotoxicity Chlorosis (kale 'Red Russian' [1]; [7]): 6%
Phytotoxicity General (kale 'Red Russian' [1]; [7]): 1%
Phytotoxicity Stunting (kale 'Red Russian' [1]; [7]): 9%
Phytotoxicity Chlorosis (kale 'Red Russian' [1]; [8]): 3%
Phytotoxicity General (kale 'Red Russian' [1]; [8]): 3%
Phytotoxicity Stunting (kale 'Red Russian' [1]; [8]): 10%
Phytotoxicity Chlorosis (basil 'Genovese'; [9]): 3%
Phytotoxicity General (basil 'Genovese'; [9]): 2%
Phytotoxicity Stunting (basil 'Genovese'; [9]): 3%
Phytotoxicity Chlorosis (basil 'Genovese'; [10]): 5%
Phytotoxicity General (basil 'Genovese'; [10]): 2%
Phytotoxicity Stunting (basil 'Genovese'; [10]): 5%
Phytotoxicity Chlorosis (basil 'Genovese'; [11]): 7%
Phytotoxicity General (basil 'Genovese'; [11]): 5%
Phytotoxicity Stunting (basil 'Genovese'; [11]): 3%
Phytotoxicity Chlorosis (basil 'Genovese'; [12]): 2%
Phytotoxicity General (basil 'Genovese'; [12]): 5%
Phytotoxicity Stunting (basil 'Genovese'; [12]): 0%
Phytotoxicity Chlorosis (basil 'Genovese'; [13]): 2%
Phytotoxicity General (basil 'Genovese'; [13]): 2%
Phytotoxicity Stunting (basil 'Genovese'; [13]): 2%
Phytotoxicity Chlorosis (basil 'Genovese'; [14]): 2%
Phytotoxicity General (basil 'Genovese'; [14]): 0%
Phytotoxicity Stunting (basil 'Genovese'; [14]): 0%
Alanine, Percent Increase over the Untreated Check (on a % dry matter basis) (kale 'Red Russian' [2]; [15]): 5 % check
Aspartic acid, Percent Increase over the Untreated Check (on a % dry matter basis) (kale 'Red Russian' [2]; [15]): 6 % check
Cysteine, Percent Increase over the Untreated Check (on a % dry matter basis) (kale 'Red Russian' [2]; [15]): 6 % check
Glutamic acid, Percent Increase over the Untreated Check (on a % dry matter basis) (kale 'Red Russian' [2]; [15]): 11 % check
Glycine, Percent Increase over the Untreated Check (on a % dry matter basis) (kale 'Red Russian' [2]; [15]): 4 % check
Iso-leucine, Percent Increase over the Untreated Check (on a % dry matter basis) (kale 'Red Russian' [2]; [15]): 6 % check
Leucine, Percent Increase over the Untreated Check (on a % dry matter basis) (kale 'Red Russian' [2]; [15]): 4 % check
Lysine, Percent Increase over the Untreated Check (on a % dry matter basis) (kale 'Red Russian' [2]; [15]): 6 % check
Methionine, Percent Increase over the Untreated Check (on a % dry matter basis) (kale 'Red Russian' [2]; [15]): 4 % check
Proline, Percent Increase over the Untreated Check (on a % dry matter basis) (kale 'Red Russian' [2]; [15]): 8 % check
Threonine, Percent Increase over the Untreated Check (on a % dry matter basis) (kale 'Red Russian' [2]; [15]): 6 % check
Total Amino acids, Percent Increase over the Untreated Check (on a % dry matter basis) (kale 'Red Russian' [2]; [15]): 6 % check
Total Protein, Percent Increase over the Untreated Check (on a % dry matter basis) (kale 'Red Russian' [2]; [15]): 4 % check
Valine, Percent Increase over the Untreated Check (on a % dry matter basis) (kale 'Red Russian' [2]; [15]): 5 % check
ADF, Percent Increase Over the Untreated Check (on a % dry matter basis) (kale 'Red Russian' [2]; [16]): 7 % check
Calcium, Percent Increase Over the Untreated Check (on a % dry matter basis) (kale 'Red Russian' [2]; [16]): −4 % check
Copper, Percent Increase Over the Untreated Check (on a % dry matter basis) (kale 'Red Russian' [2]; [16]): 0 % check
Iron, Percent Increase Over the Untreated Check (on a % dry matter basis) (kale 'Red Russian' [2]; [16]): −5 % check
Magnesium, Percent Increase Over the Untreated Check (on a % dry matter basis) (kale 'Red Russian' [2]; [16]): −3 % check
Manganese, Percent Increase Over the Untreated Check (on a % dry matter basis) (kale 'Red Russian' [2]; [16]): −2 % check
NDF, Percent Increase Over the Untreated Check (on a % dry matter basis) (kale 'Red Russian' [2]; [16]): −2 % check
Phosphorous, Percent Increase Over the Untreated Check (on a % dry matter basis) (kale 'Red Russian' [2]; [16]): 1 % check

— US20110053773A1, “METHODS OF IMPROVING NUTRITIONAL VALUE OF PLANTS” (UNIVERSITY OF TENNESSEE RESEARCH FOUNDATION, priority 2009, published 2011)
